The structures appear in SMILES notation. Inconclusive results and toxic doses are left out.

In this test the test system is L1210 leukemia ip in BDF1 mice, survival T/C. Description: NCI In Vivo Anticancer Drug Screen. Data for tumor model L1210 Leukemia (intraperitoneal) in B6D2F1 (BDF1) mice. The following applies: endpoint: mean survival time, higher = longer survival. An outline of the steps: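 Ratio derived from survival: compound-dosed mice over vehicle-dosed mice, all bearing a transplantable tumor.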

Where [1] appears, read: dose: 100.0 mg/kg/injection, schedule: Q04DX003 (ip), vehicle: Klucel (hydroxypropylcellulose) (HPC).
Setting [2] is: dose: 200.0 mg/kg/injection, schedule: Q01DX009 (ip), vehicle: Klucel (hydroxypropylcellulose) (HPC).
The mark [3] stands for this setting: dose: 200.0 mg/kg/injection, schedule: Q04DX003 (ip), vehicle: Klucel (hydroxypropylcellulose) (HPC).
Setting [4] is: dose: 400.0 mg/kg/injection, schedule: Q01DX009 (ip), vehicle: Klucel (hydroxypropylcellulose) (HPC).
The mark [5] stands for this setting: dose: 400.0 mg/kg/injection, schedule: Q04DX003 (ip), vehicle: Klucel (hydroxypropylcellulose) (HPC).
The mark [6] stands for this setting: dose: 100.0 mg/kg/injection, schedule: Q04DX002 (ip), vehicle: Klucel (hydroxypropylcellulose) (HPC).
[7] abbreviates: dose: 25.0 mg/kg/injection, schedule: Q04DX002 (ip), vehicle: Klucel (hydroxypropylcellulose) (HPC).
The mark [8] stands for this setting: dose: 50.0 mg/kg/injection, schedule: Q04DX002 (ip), vehicle: Klucel (hydroxypropylcellulose) (HPC).

Regarding `COc1ccc(C(C#N)CC(=O)c2ccc(OC)c(OCc3ccccc3)c2)cc1OC` (configuration not stated), the T/C was 96 % of control (dose: 25.0 mg/kg/injection, schedule: Q01DX009 (ip), vehicle: saline); 102 % of control (dose: 50.0 mg/kg/injection, schedule: Q01DX009 (ip), vehicle: saline); 101 % of control (dose: 100.0 mg/kg/injection, schedule: Q01DX009 (ip), vehicle: saline); 101 % of control (dose: 200.0 mg/kg/injection, schedule: Q01DX009 (ip), vehicle: saline).

As for `Nc1cc(C(=O)Nc2ccc(C3=NCCN3)cc2)cc(C(=O)Nc2ccc(C3=NCCN3)cc2)c1`, the T/C is 113 % of control (dose: 4.0 mg/kg/injection, schedule: Q01DX Z (ip), vehicle: saline); 95 % of control (dose: 8.0 mg/kg/injection, schedule: Q01DX004 (im), vehicle: olive oil, sesame oil, peanut oil); 107 % of control (dose: 8.0 mg/kg/injection, schedule: Q01DX Z (ip), vehicle: saline); 95 % of control (dose: 16.0 mg/kg/injection, schedule: Q01DX004 (im), vehicle: olive oil, sesame oil, peanut oil); 123 % of control (dose: 16.0 mg/kg/injection, schedule: Q01DX Z (ip), vehicle: saline); 168 % of control (dose: 31.0 mg/kg/injection, schedule: Q01DX Z (ip), vehicle: carboxymethylcellulose (CMC)). Moreover, the T/C is 109 % of control (dose: 32.0 mg/kg/injection, schedule: Q01DX004 (im), vehicle: olive oil, sesame oil, peanut oil); 159 % of control (dose: 32.0 mg/kg/injection, schedule: Q01DX010 (sc), vehicle: saline); 197 % of control (dose: 62.0 mg/kg/injection, schedule: Q01DX Z (ip), vehicle: carboxymethylcellulose (CMC)); 115 % of control (dose: 62.5 mg/kg/injection, schedule: Q01DX010 (oral), vehicle: saline); 114 % of control (dose: 64.0 mg/kg/injection, schedule: Q01DX004 (im), vehicle: olive oil, sesame oil, peanut oil); 179 % of control (dose: 64.0 mg/kg/injection, schedule: Q01DX010 (sc), vehicle: saline). Besides, the T/C reads like this: (dose: 64.0 mg/kg/injection, schedule: Q01DX Z (ip), vehicle: saline) 249 % of control; (dose: 125.0 mg/kg/injection, schedule: Q01DX010 (oral), vehicle: saline) 87 % of control; (dose: 125.0 mg/kg/injection, schedule: Q01DX Z (ip), vehicle: carboxymethylcellulose (CMC)) 155 % of control; (dose: 128.0 mg/kg/injection, schedule: Q01DX010 (sc), vehicle: saline) 186 % of control; (dose: 128.0 mg/kg/injection, schedule: Q01DX Z (ip), vehicle: saline) 212 % of control; (dose: 250.0 mg/kg/injection, schedule: Q01DX010 (oral), vehicle: saline) 88 % of control. Moreover, the T/C by setting is: (dose: 250.0 mg/kg/injection, schedule: Q01DX Z (ip), vehicle: carboxymethylcellulose (CMC)) 117 % of control; (dose: 500.0 mg/kg/injection, schedule: Q01DX010 (oral), vehicle: saline) 117 % of control; (dose: 1000.0 mg/kg/injection, schedule: Q01DX010 (oral), vehicle: saline) 115 % of control.

Consider `CC(=O)NCCCc1c(C)nc(N)[nH]c1=O`, for which the T/C (dose: 62.5 mg/kg/injection, schedule: Q01DX001 (ip), vehicle: Klucel (hydroxypropylcellulose) (HPC)) was 102 % of control; the T/C (dose: 125.0 mg/kg/injection, schedule: Q01DX001 (ip), vehicle: Klucel (hydroxypropylcellulose) (HPC)) is 102 % of control; the T/C (dose: 250.0 mg/kg/injection, schedule: Q01DX001 (ip), vehicle: Klucel (hydroxypropylcellulose) (HPC)) was 102 % of control.

With `Nc1c(Br)cc(Br)c2ccccc12`, the T/C is, setting by setting: (dose: 100.0 mg/kg/injection, schedule: Q01DX009 (ip), vehicle: acetone) 93 % of control; (dose: 100.0 mg/kg/injection, schedule: Q04DX003 (ip), vehicle: saline with Tween-80) 97 % of control; (dose: 200.0 mg/kg/injection, schedule: Q01DX009 (ip), vehicle: acetone) 91 % of control; (dose: 200.0 mg/kg/injection, schedule: Q04DX003 (ip), vehicle: saline with Tween-80) 92 % of control; (dose: 400.0 mg/kg/injection, schedule: Q01DX009 (ip), vehicle: acetone) 93 % of control; (dose: 400.0 mg/kg/injection, schedule: Q04DX003 (ip), vehicle: saline with Tween-80) 97 % of control.

As for `Cc1cc2nc(C)c(=O)[nH]c2cc1C`, the T/C was 95 % of control (dose: 100.0 mg/kg/injection, schedule: Q01DX009 (ip), vehicle: Klucel (hydroxypropylcellulose) (HPC)); 96 % of control under setting [1]; 98 % of control under setting [2]; 92 % of control under setting [3]; 91 % of control under setting [4]; 92 % of control under setting [5].

Take `Cc1ccc(S(=O)(=O)N(C)c2ccc(N(C)S(=O)(=O)c3ccc(C)cc3)cc2)cc1`: the T/C reads like this: under setting [1], 97 % of control; under setting [3], 97 % of control; under setting [5], 97 % of control.

As for `O=c1c(=O)c2ccccc2c(=O)/c1=N/Nc1ccccc1`, the T/C runs as follows: (dose: 100.0 mg/kg/injection, schedule: Q01DX001 (ip), vehicle: water) 98 % of control; (dose: 200.0 mg/kg/injection, schedule: Q01DX001 (ip), vehicle: water) 95 % of control; (dose: 400.0 mg/kg/injection, schedule: Q01DX001 (ip), vehicle: water) 97 % of control.

`CSc1ccc(OC(=O)Nc2ccccc2C)cc1`: the T/C by setting is: under setting [6], 95 % of control; (dose: 200.0 mg/kg/injection, schedule: Q04DX002 (ip), vehicle: Klucel (hydroxypropylcellulose) (HPC)) 106 % of control; (dose: 400.0 mg/kg/injection, schedule: Q04DX002 (ip), vehicle: Klucel (hydroxypropylcellulose) (HPC)) 114 % of control.

For `O=C(NCCCCCCCNC(=O)Nc1ccc(C2=NCCCN2)cc1)Nc1ccc(C2=NCCCN2)cc1`, the T/C is 98 % of control (dose: 3.75 mg/kg/injection, schedule: Q01DX Z (ip), vehicle: carboxymethylcellulose (CMC)); 102 % of control (dose: 7.5 mg/kg/injection, schedule: Q01DX Z (ip), vehicle: carboxymethylcellulose (CMC)); 120 % of control (dose: 15.0 mg/kg/injection, schedule: Q01DX Z (ip), vehicle: carboxymethylcellulose (CMC)); 89 % of control (dose: 30.0 mg/kg/injection, schedule: Q01DX Z (ip), vehicle: carboxymethylcellulose (CMC)).

Regarding `Cc1ccc(/C(=N\N=C(N)N)C2CC2)cc1`, the T/C runs as follows: (dose: 15.0 mg/kg/injection, schedule: Q01DX Z (ip), vehicle: methylcellulose (MC)) 102 % of control; (dose: 30.0 mg/kg/injection, schedule: Q01DX Z (ip), vehicle: methylcellulose (MC)) 113 % of control; (dose: 60.0 mg/kg/injection, schedule: Q01DX Z (ip), vehicle: methylcellulose (MC)) 112 % of control; (dose: 120.0 mg/kg/injection, schedule: Q01DX Z (ip), vehicle: methylcellulose (MC)) 97 % of control; (dose: 120.0 mg/kg/injection, schedule: Q01DX Z (oral), vehicle: methylcellulose (MC)) 96 % of control; (dose: 240.0 mg/kg/injection, schedule: Q01DX Z (ip), vehicle: methylcellulose (MC)) 99 % of control. Moreover, the T/C is, setting by setting: (dose: 240.0 mg/kg/injection, schedule: Q01DX Z (oral), vehicle: methylcellulose (MC)) 98 % of control; (dose: 480.0 mg/kg/injection, schedule: Q01DX Z (oral), vehicle: methylcellulose (MC)) 90 % of control.

In the case of `NC(CCl)=NCC1CCCCCC1`, the T/C was 107 % of control under setting [7], 100 % of control under setting [8] and 101 % of control under setting [6].

In the case of `Clc1ccccc1C(c1cccc2ccccc12)n1ccnc1` (configuration not stated), the T/C under setting [7] was 92 % of control; the T/C under setting [8] is 100 % of control; the T/C under setting [6] is 100 % of control; the T/C under setting [2] is 93 % of control; the T/C under setting [4] is 86 % of control.

`CC1([N+](=O)[O-])COP(=O)(Nc2ccccc2F)OC1` (configuration not stated): the T/C (dose: 100.0 mg/kg/injection, schedule: Q01DX001 (ip), vehicle: carboxymethylcellulose (CMC)) was 101 % of control; the T/C (dose: 200.0 mg/kg/injection, schedule: Q01DX001 (ip), vehicle: carboxymethylcellulose (CMC)) is 95 % of control; the T/C (dose: 400.0 mg/kg/injection, schedule: Q01DX001 (ip), vehicle: carboxymethylcellulose (CMC)) is 104 % of control.

For the origin of these results see PubChem BioAssay AID248 (DTP/NCI, 2004).
